This passage reports AC40 results from PubChem BioAssay AID624405 (Broad Institute, 2012).

Records with an inconclusive call do not appear.

For the test, the system named is C2C12 myotubes + simvastatin, ATP luminescence, 48 h. Briefly: rescue of simvastatin-induced ATP loss – cell-based, C2C12 myotubes, ATP luminescence, cherry pick, dose response (AID 624405).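 Note: myotubes are challenged with simvastatin at 10 µM to lower ATP.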

As for `COc1ccc(S(=O)(=O)Nc2ccc3c(c2)CC(=O)N([C@H](C)CO)C[C@@H](C)[C@H](CN(C)CC2CCCCC2)O3)cc1`, the AC40 was 2.63 µM. The value for `NS(=O)(=O)OCC(Cc1ccccc1)N1C(=O)c2ccccc2C1=O` (stereo not given) was 14.6 µM.

For `C[C@H]1CN([C@@H](C)CO)C(=O)Cc2cc(NC(=O)Nc3cccc4ccccc34)ccc2O[C@H]1CN(C)Cc1ccc(C(=O)Nc2ccccc2N)cc1`, the AC40 is 2.05 µM.

For `CC1CCN(S(=O)(=O)c2ccc(NC(=O)C3CCN(C(=O)c4ccco4)CC3)cc2)CC1`, the AC40 is 6.94 µM.

For `CC1(Cc2ccccc2OC(F)(F)F)C(=O)Nc2ccc(S(=O)(=O)NC3CCCCC3)cc21` (stereo not given), the AC40 is 6.62 µM. Under `COc1ccccc1NS(=O)(=O)c1cccc(NC(=O)c2nc3nc(C)cc(C)n3n2)c1` stands 8.63 µM; under `C[C@@H]1CN([C@@H](C)CO)C(=O)c2cc(NC(=O)Nc3cccc4ccccc34)ccc2O[C@@H]1CN(C)Cc1ccc(C(=O)Nc2ccccc2N)cc1`, 2.85 µM. Consider `C=CCn1c(SCC(=O)NC2CCCC2)nc2scc(-c3ccco3)c2c1=O`, for which the AC40 was 9.19 µM.

Regarding `C[C@H](CO)N1C[C@H](C)[C@H](CN(C)Cc2ccc(Cl)c(Cl)c2)Oc2ccc(NC(=O)CCCCCC(=O)Nc3ccccc3N)cc2CC1=O`, the AC40 was 13.4 µM. Under `CC(=O)C(=Nc1ccccc1Cl)NNc1ccc(Cl)cc1` stands 6.58 µM; under `Cc1nn(Cc2ccccc2Cl)c2sc(C(=O)NCc3ccc4c(c3)OCO4)cc12`, 12.5 µM; under `Cc1ccc(N2CC(C(=O)Nc3ccc(N(C)C)cc3)CC2=O)cc1C` (stereo not given), 12 µM. Under `C[C@H](CO)N1C[C@H](C)[C@H](CN(C)CC2CCCCC2)Oc2ccc(NC(=O)CCCCCC(=O)Nc3ccccc3N)cc2CC1=O` stands 10.1 µM.

Turning to `COc1ccc(C#Cc2cnc3c(c2)C(=O)N([C@H](C)CO)C[C@H](C)[C@@H](CN(C)C(=O)Nc2cccc(OC)c2)O3)cc1`, the AC40 is 1.38 µM.

Turning to `C[C@@H]1CN([C@H](C)CO)C(=O)c2cccc(NC(=O)c3nc4ccccc4s3)c2O[C@@H]1CN(C)Cc1ccc(C(=O)Nc2ccccc2N)cc1`, the AC40 was 0.462 µM. Regarding `COc1ccc(S(=O)(=O)N(C)C[C@H]2Oc3c(NC(=O)Nc4ccccc4)cccc3C(=O)N([C@H](C)CO)C[C@H]2C)cc1`, the AC40 was 4.87 µM. In the case of `Cc1ccc(C2OC(=O)c3ccccc32)cc1` (stereo not given), the AC40 is 2.21 µM. As for `Cc1ccc(NS(=O)(=O)c2ccc(-n3cccn3)cc2)cc1F`, the AC40 was 5.32 µM.

`COc1ccc2c(Cl)c(-c3nnc(SCC(=O)c4ccccc4)n3C)sc2c1`: the AC40 was 1.13 µM. Consider `Cc1noc(C)c1S(=O)(=O)Nc1ccc2c(c1)CC(=O)N([C@H](C)CO)C[C@H](C)[C@@H](CN(C)Cc1ccc(C(F)(F)F)cc1)O2`, for which the AC40 is 4.59 µM. Turning to `Cc1noc(C)c1S(=O)(=O)Nc1ccc2c(c1)CC(=O)N([C@H](C)CO)C[C@@H](C)[C@@H](CN(C)Cc1ccc(-c3ccccc3)cc1)O2`, the AC40 was 3.64 µM.

As for `C[C@H]1CN([C@@H](C)CO)C(=O)c2cc(C#Cc3ccncc3)cnc2O[C@@H]1CN(C)CC1CCCC1`, the AC40 is 4.52 µM. On to `Cc1ccc(S(=O)(=O)Nc2ccc3c(c2)CC(=O)N([C@@H](C)CO)C[C@@H](C)[C@H](CN(C)Cc2ccc(-c4ccccc4)cc2)O3)cc1`, for which the AC40 is 1.17 µM. For the compound `CCOc1ccccc1NC(=O)C1CCCN(S(=O)(=O)c2ccc(OC)c(C)c2)C1` (stereo not given), the AC40 is 8.06 µM. Under `COc1ccc(S(=O)(=O)N(C)C[C@H]2Oc3c(NC(=O)Nc4ccc(F)cc4)cccc3C(=O)N([C@@H](C)CO)C[C@H]2C)cc1` stands 14.5 µM; under `CCOc1ccccc1NC(=O)c1ccccc1N(C)S(C)(=O)=O`, 5.38 µM; under `Cc1nnsc1NC(=O)OCc1ccc(C(F)(F)F)cc1`, 8.84 µM. Take `c1ccc(-c2csc3nnc(SCc4ccc5c(c4)OCCO5)n23)cc1`: the AC40 was 3.7 µM.

`COc1ccc(S(=O)(=O)Nc2ccc3c(c2)CC(=O)N([C@@H](C)CO)C[C@@H](C)[C@H](CN(C)Cc2ccc(-c4ccccc4)cc2)O3)cc1`: the AC40 was 11 µM.

As to `CCOc1c(S(=O)(=O)N2CCCC2)ccc(Cl)c1Cl`, the AC40 is 5.43 µM.
